Key:
Type in all cases: biochemical
CDK2/CyclinE1 = target: T1, CDK2/CyclinE1 (Homo sapiens, UniProt P24941); experiment: CDK2/CyclinE1 kinase inhibitory activity (Caliper mobility shift); conditions: enzyme 3 nM, ATP 77 μM, 28° C. 30 min; read-out: CDK2/Cyclin E1 IC50
T1 construct: purchased Carna 04-165
Experimental: CDK2/CyclinE1 kinase inhibitory activity (IC50): 5 μl of various dilutions of test compounds in 1×kinase buffer (50 mM HEPES pH 7.5, 10 mM MgCl2, 2 mM DTT and […] Brij-35) were mixed with 10 μL of CDK2/CyclinE1 (Carna, 04-165 #, final concentration 3 nM in 1×Kinase buffer) in 384 plates and incubated at room temperature for 10 min. To initiate each reaction, 10 μL of peptide solution containing fluorescently-labeled-peptide 18(5-FAM-QSPKKG-CONH2) (GL, 114202 #, final concentration 3000 nM) and ATP (final concentration 77 μM) in 1×Kinase buffer was added to each of the wells containing test compound and CDK2/CyclinE1 mixture. The reaction was then allowed to proceed at 28° C. for 30 min and terminated by the addition of 25 μL stop buffer (100 mM HEPES pH 7.5, 50 mM EDTA, 0.2% Coating Reagent #3 (Perkin Elmer, 760050 #) and 0.015% Brij-35).
Following the kinase reaction, Caliper EZ reader II (Downstream voltages: −500V, Upstream voltages: −2250V, Base pressure −0.5 PSI, Screen pressure −1.2 PSI) was used to separate the phosphorylated (product) and the unphosphorylated (substrate) fluorescently-labeled peptide 18 based on their different mobility. Both substrate and product were measured and the ratio of these values were used to generate % conversion by Caliper EZ reader II. These conversion values were then transformed into % inhibition of kinase activity using the formula: % Inhibition=[(MA−X)/(MA−MI)]×100% where MA=conversion value of DMSO only controls, MI=conversion value of no enzyme controls and X=conversion value at any given compound dose. IC50 values were then calculated by plotting dose-response curves and then using the XLfit application in Excel software.

CDK6/CyclinD3 = target: T2, CDK6/CyclinD3 (Homo sapiens, UniProt Q00534); experiment: CDK6/CyclinD3 kinase inhibitory activity (Caliper mobility shift); conditions: enzyme 15 nM, ATP 800 μM, 28° C. 30 min; read-out: CDK6/Cyclin D3 IC50
T2 construct: purchased Carna 04-107
T2 sequence (Q00534 whole entry): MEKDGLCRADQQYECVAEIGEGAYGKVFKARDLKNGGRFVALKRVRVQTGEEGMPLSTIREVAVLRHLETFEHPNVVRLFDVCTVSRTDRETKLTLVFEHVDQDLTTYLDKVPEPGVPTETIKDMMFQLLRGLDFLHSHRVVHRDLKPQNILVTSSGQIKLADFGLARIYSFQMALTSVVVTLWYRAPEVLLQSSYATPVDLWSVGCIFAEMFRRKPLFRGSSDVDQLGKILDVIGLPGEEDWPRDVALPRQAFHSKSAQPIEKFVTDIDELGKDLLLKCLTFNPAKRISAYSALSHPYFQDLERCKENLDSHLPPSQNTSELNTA
T2 sequence (P30281 whole entry partner): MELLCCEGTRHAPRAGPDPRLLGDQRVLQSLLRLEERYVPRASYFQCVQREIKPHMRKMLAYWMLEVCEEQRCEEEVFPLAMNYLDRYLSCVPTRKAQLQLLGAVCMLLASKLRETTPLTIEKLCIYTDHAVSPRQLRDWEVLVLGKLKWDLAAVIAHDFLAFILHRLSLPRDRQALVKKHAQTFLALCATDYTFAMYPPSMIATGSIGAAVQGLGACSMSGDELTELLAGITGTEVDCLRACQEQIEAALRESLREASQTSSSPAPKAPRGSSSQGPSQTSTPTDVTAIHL
Summary of the method: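 Compound preincubated 10 min at room temperature with CDK6/CyclinD3 (15 nM final) in HEPES pH 7.5/MgCl2/DTT buffer; reaction with 5-FAM peptide (3000 nM) and ATP 800 μM, 30 min at 28°C, stopped with EDTA. Substrate/product separated by microfluidic mobility shift; % conversion converted to % inhibition, IC50 from dose-response curves.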

CDK4/CyclinD1 = target: T3, CDK4/CyclinD1 (Homo sapiens, UniProt P11802); experiment: CDK4/CyclinD1 kinase inhibitory activity (Caliper mobility shift); conditions: enzyme 20 nM, ATP 672 uM, 28° C. 30 min; read-out: CDK4/Cyclin D1 IC50
T3 construct: purchased ProQinase 0142-0143-1
T3 sequence (P11802 whole entry): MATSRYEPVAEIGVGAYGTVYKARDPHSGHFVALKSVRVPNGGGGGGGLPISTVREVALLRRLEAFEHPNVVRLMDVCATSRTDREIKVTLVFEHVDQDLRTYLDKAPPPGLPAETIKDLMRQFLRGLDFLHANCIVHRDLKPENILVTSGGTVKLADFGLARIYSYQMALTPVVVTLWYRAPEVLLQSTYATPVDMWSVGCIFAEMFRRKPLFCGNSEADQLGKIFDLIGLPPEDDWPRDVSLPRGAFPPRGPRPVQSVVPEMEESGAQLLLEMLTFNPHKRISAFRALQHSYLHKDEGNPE
T3 sequence (P24385 whole entry partner): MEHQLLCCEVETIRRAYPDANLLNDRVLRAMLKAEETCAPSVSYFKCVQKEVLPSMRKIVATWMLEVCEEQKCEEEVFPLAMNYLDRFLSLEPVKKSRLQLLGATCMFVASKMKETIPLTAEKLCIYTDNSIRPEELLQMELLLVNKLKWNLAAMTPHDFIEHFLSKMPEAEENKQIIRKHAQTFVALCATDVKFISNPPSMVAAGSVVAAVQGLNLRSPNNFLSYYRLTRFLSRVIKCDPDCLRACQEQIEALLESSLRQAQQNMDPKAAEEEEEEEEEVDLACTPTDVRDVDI
Summary of the method: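 Recombinant CDK4/Cyclin D1 (20 nM final) preincubated 10 min at room temperature with compound in HEPES pH 7.5 buffer with MgCl2, DTT and Triton X-100. Reaction started with 3000 nM FAM-labelled peptide and 672 uM ATP, run 30 min at 28° C, stopped with EDTA. Mobility-shift % conversion gave % inhibition, and IC50 came from dose-response fits.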

SMILES	IC50 (CDK2/CyclinE1)	IC50 (CDK6/CyclinD3)	IC50 (CDK4/CyclinD1)
O[C@@H]1COCC[C@H]1Nc1ncc(Cl)c(-c2cc(F)c3ncc4c(c3c2)CNC2(CC2)C4)n1 [Example 21, (3S,4R)-4-((5-chloro-4-(7-fluoro-1,4-dihydro-2H-spiro[benzo[c][2,6]naphthyridine-3,1′-cyclopropan]-9-yl)pyrimidin-2-yl)amino)tetrahydro-2H-pyran-3-ol]	100 to 1000 nM	100 to 1000 nM	< 10 nM
CC(C)(O)c1cnc2c(F)cc(-c3nc(N[C@@H]4CCOC[C@H]4O)ncc3F)cc2c1Cl [Example 22, (3S,4R)-4-((4-(4-chloro-8-fluoro-3-(2-hydroxypropan-2-yl)quinolin-6-yl)-5-fluoropyrimidin-2-yl)amino)tetrahydro-2H-pyran-3-ol]	100 to 1000 nM	10 to 100 nM	< 10 nM
Cc1c(C(C)(C)O)cnc2c(F)cc(-c3nc(N[C@@H]4CCOC[C@H]4O)ncc3F)cc12 [Example 23, (3S,4R)-4-((5-fluoro-4-(8-fluoro-3-(2-hydroxypropan-2-yl)-4-methylquinolin-6-yl)pyrimidin-2-yl)amino)tetrahydro-2H-pyran-3-ol]	10 to 100 nM	10 to 100 nM	< 10 nM
CC1(C)Cc2cnc3c(F)cc(-c4nc(N[C@@H]5CCOC[C@H]5O)ncc4F)cc3c2CN1 [Example 24, (3S,4R)-4-((5-fluoro-4-(7-fluoro-3,3-dimethyl-1,2,3,4-tetrahydrobenzo[c][2,6]naphthyridin-9-yl)pyrimidin-2-yl)amino)tetrahydro-2H-pyran-3-ol]	10 to 100 nM	10 to 100 nM	< 10 nM
O[C@@H]1COCC[C@H]1Nc1cc(-c2cc(F)c3ncc4c(c3c2)CNCC4)c(Cl)cn1 [Example 25]	10 to 100 nM	10 to 100 nM	< 10 nM
CC(C)(N)c1cnc2ccc(-c3nc(N[C@@H]4CCOC[C@H]4O)ncc3Cl)cc2c1 [Example 26]	100 to 1000 nM	≥ 1000 nM	10 to 100 nM
O[C@@H]1COCC[C@H]1Nc1ncc(Cl)c(-c2cc(F)c3ncc(C4(O)CC4)cc3c2)n1 [Example 29]	100 to 1000 nM	100 to 1000 nM	10 to 100 nM
CC1(C)Cc2cnc3c(F)cc(-c4nc(N[C@@H]5CCOC[C@H]5O)ncc4Cl)cc3c2CN1 [Example 30]	100 to 1000 nM	10 to 100 nM	< 10 nM
CNC(C)(C)c1cnc2c(F)cc(-c3nc(N[C@@H]4CCOC[C@H]4O)ncc3Cl)cc2c1 [Example 36]	100 to 1000 nM	100 to 1000 nM	10 to 100 nM
Cc1nc2c(F)cc(-c3nc(N[C@@H]4CCOC[C@H]4O)ncc3Cl)cc2c2c1CCN(C)C2 [Example 37]	≥ 1000 nM	100 to 1000 nM	< 10 nM
CC(C)(O)c1cnc2c(F)cc(-c3nc(N[C@@H]4CCOC[C@H]4O)ncc3C#N)cc2c1Cl [Example 41]	100 to 1000 nM	10 to 100 nM	< 10 nM
CC1(C)Cc2cnc3c(F)cc(-c4nc(N[C@@H]5CCOC[C@H]5O)ncc4C#N)cc3c2CN1 [Example 49]	100 to 1000 nM	100 to 1000 nM	< 10 nM
CC(C)(O)c1cnc2c(F)cc(-c3nc(Nc4ccc(-c5c[nH]cn5)cn4)ncc3F)cc2c1Cl [Example 52]	≥ 1000 nM	10 to 100 nM	< 10 nM
O[C@@H]1COCC[C@H]1Nc1ncc(F)c(-c2cc(F)c3ncc4c(c3c2)CNC2(CC2)C4)n1 [Example 56]	10 to 100 nM	100 to 1000 nM	< 10 nM
Cc1c(C(C)(C)O)cnc2c(C)cc(-c3nc(N[C@@H]4CCOC[C@H]4O)ncc3Cl)cc12 [Example 58]	≥ 1000 nM	100 to 1000 nM	< 10 nM
[2H]C([2H])([2H])C(O)(c1cc2cc(-c3nc(N[C@@H]4CCOC[C@H]4O)ncc3Cl)cc(F)c2nc1C)C([2H])([2H])[2H] [Example 60, (3S,4R)-4-((5-chloro-4-(8-fluoro-3-(2-hydroxypropan-2-yl-1,1,1,3,3,3-d6)-2-methylquinolin-6-yl)pyrimidin-2-yl)amino)tetrahydro-2H-pyran-3-ol]	≥ 1000 nM	100 to 1000 nM	< 10 nM

Reference: patent US20260242395A1, “AMINOHETEROARYL KINASE INHIBITORS” (ALLORION THERAPEUTICS INC, priority 2022, published 2026)
